The record followed here is patent publication US12187701B2, “Taire family kinase inhibitors and uses thereof” (Dana-Farber Cancer Institute, Inc., priority 2018, dated 2025).

Like-named read-outs stand apart in the source and are kept apart here.

One assay deals with CDK16/CycY (Homo sapiens (Human), UniProt Q00536). In words: Lanthascreen Eu kinase binding assay for CDK16/CycY. The note with it: read-out: IC50 CDK16 Lanthascreen binding. On the procedure:
Lanthascreen Eu kinase binding assays were conducted for CDK16/CycY at Life Technologies.
(In general: In TR-FRET formats the signal depends on donor and acceptor labels being close together.)

Another assay deals with CDK2/CycA (Homo sapiens (Human), UniProt P24941). In words: Z'LYTE kinase assay for CDK2/CycA at Km ATP. Type of assay: biochemical. Particulars: read-out: IC50 CDK2 Z′LYTE kinase assay.
The next assay deals with HCT116 cells. Nature of the assay: Antiproliferation assay, Cell Titer Glo, 72 hours. It counts as cell-based. On the procedure:
HCT116 cells were plated in 384-well plates at 750 cells/well in 50 ul fresh media (McCoy's 5A+10% FBS+1% Penn/Strep) and treated with 0.1 μl candidate compounds in four-fold dilution series using the Janus pinner. Cells were incubated with compounds for 72 hours in 37° C. 5% CO2. Anti-proliferative effects of these compounds were assessed 72 hours after compound addition using Cell Titer Glo (Promega cat #G7571) as described in product manual by luminescence measurements using an Envision platereader. All proliferation assays were performed in biological quadruplicate. IC50 values were determined using a non-linear regression curve fit in GraphPad Prism 6.
For orientation: Cellular ATP, detected with luciferase, serves as a proxy for viable cell number.

The target of another assay is Cdk14/CycY (Homo sapiens (Human), UniProt O94921). In words: Lanthascreen Eu kinase binding assay for Cdk14/CycY with 30 minute pre-incubation. The note with it: 30 minute pre-incubation of kinase with compound; read-out: IC50 CDK14 binding by Lanthascreen. On the procedure: Lanthascreen Eu kinase binding assays were conducted for Cdk14/CycY largely as performed in the commercial assay service by Life Technologies, but included a 30 minute pre-incubation step of the kinase with candidate compounds to facilitate covalent bond formation.
Cdk14/CycY, sequence (O94921 whole entry): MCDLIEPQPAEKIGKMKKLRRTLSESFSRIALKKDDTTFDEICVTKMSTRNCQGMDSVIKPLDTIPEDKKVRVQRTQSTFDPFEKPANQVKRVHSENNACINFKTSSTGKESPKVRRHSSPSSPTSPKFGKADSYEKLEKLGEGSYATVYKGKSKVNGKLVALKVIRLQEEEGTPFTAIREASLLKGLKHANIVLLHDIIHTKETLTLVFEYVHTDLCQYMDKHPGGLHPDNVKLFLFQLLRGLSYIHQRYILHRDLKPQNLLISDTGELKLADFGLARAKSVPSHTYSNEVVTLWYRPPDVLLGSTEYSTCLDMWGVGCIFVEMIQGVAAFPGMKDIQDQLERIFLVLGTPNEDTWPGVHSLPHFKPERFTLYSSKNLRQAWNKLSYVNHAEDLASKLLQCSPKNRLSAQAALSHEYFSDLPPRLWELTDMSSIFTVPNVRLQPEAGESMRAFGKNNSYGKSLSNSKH
Cdk14/CycY, sequence (Q8ND76 whole entry partner): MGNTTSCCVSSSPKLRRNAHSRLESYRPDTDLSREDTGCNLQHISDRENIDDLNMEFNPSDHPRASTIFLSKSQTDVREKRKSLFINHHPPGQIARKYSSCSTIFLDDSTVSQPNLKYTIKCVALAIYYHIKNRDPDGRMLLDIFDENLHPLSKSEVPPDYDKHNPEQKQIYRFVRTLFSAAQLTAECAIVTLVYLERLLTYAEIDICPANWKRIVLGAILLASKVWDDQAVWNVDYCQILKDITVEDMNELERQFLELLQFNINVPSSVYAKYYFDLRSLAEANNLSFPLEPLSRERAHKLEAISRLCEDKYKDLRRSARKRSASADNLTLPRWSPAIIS

What is called IC50 is the point on the concentration scale where inhibition reaches its midpoint.

CDK16/CycY, sequence (Q00536 whole entry): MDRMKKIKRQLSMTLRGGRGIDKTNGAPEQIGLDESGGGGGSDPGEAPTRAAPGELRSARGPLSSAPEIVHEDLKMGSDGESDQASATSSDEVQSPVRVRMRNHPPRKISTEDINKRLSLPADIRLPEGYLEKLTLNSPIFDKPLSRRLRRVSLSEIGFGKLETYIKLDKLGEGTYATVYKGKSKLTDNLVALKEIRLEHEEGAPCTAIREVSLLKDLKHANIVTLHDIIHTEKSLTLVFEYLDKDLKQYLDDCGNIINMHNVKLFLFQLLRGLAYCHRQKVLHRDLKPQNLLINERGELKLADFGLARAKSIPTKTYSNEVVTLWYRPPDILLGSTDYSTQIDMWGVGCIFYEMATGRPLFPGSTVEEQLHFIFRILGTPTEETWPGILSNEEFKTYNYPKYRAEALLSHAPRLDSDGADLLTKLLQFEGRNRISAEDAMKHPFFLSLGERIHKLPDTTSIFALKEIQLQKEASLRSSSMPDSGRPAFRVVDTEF
CDK16/CycY, sequence (Q8ND76 whole entry partner): as the sequence (Q8ND76 whole entry partner) above

Take `CN(C)C/C=C/C(=O)Nc1cccc(S(=O)(=O)N2CCC(NC(=O)c3n[nH]cc3NC(=O)c3c(Cl)cccc3Cl)CC2)c1` [FMF-03-198-2, (E)-4-(2,6-dichlorobenzamido)-N-(1-((3-(4-(dimethylamino)but-2-enamido)phenyl)sulfonyl)piperidin-4-yl)-1H-pyrazole-3-carboxamide]: the IC50 at CDK16/CycY and at CDK2/CycA was 0.9 nM throughout.

As to `CN(C)C/C=C/C(=O)Nc1cccc(CN2CCC(NC(=O)c3n[nH]cc3NC(=O)c3c(Cl)cccc3Cl)CC2)c1` [FMF-03-200-2], the concentration for half-maximal inhibition (IC50) is 10.2 nM on CDK16/CycY; 26 nM at CDK2/CycA; 2.1 nM in the assay with HCT116 cells; 2.2 nM in the assay with HCT116 cells (Homo sapiens, HCT-116, 72 h).

Take `CCC(=O)Nc1cccc(S(=O)(=O)N2CCC(NC(=O)c3n[nH]cc3NC(=O)c3c(Cl)cccc3Cl)CC2)c1` [FMF-04-060-1, 4-(2,6-dichlorobenzamido)-N-(1-((3-propionamidophenyl)sulfonyl)piperidin-4-yl)-1H-pyrazole-3-carboxamide]: the IC50 at CDK16/CycY came to 2.3 nM; on CDK2/CycA, 3 nM; with HCT116 cells (Homo sapiens, HCT-116, 72 h), 76 nM.

In the case of `C=CC(=O)Nc1ccc(S(=O)(=O)N2CC[C@@H](NC(=O)c3n[nH]cc3NC(=O)c3c(Cl)cccc3Cl)C2)cc1` [FMF-05-066-1, (R)—N-(1-((4-acrylamidophenyl)sulfonyl)pyrrolidin-3-yl)-4-(2,6-dichlorobenzamido)-1H-pyrazole-3-carboxamide], the IC50 in the assay with HCT116 cells (Homo sapiens, HCT-116, 72 h) was 3000 nM; at Cdk14/CycY, > 10000 nM.

As for `C=CC(=O)Nc1cccc(S(=O)(=O)N2CC[C@H](NC(=O)c3n[nH]cc3NC(=O)c3c(Cl)cccc3Cl)C2)c1` [FMF-05-068-1, (S)—N-(1-((3-acrylamidophenyl)sulfonyl)pyrrolidin-3-yl)-4-(2,6-dichlorobenzamido)-1H-pyrazole-3-carboxamide], the IC50 with HCT116 cells (Homo sapiens, HCT-116, 72 h) amounted to 6200 nM; on Cdk14/CycY it was 450 nM.

For `CN(C)C/C=C/C(=O)Nc1cccc(S(=O)(=O)N2CC[C@H](NC(=O)c3n[nH]cc3NC(=O)c3c(Cl)cccc3Cl)C2)c1` [FMF-05-068-2, (S,E)-4-(2,6-dichlorobenzamido)-N-(1-((3-(4-(dimethylamino)but-2-enamido)phenyl)sulfonyl)pyrrolidin-3-yl)-1H-pyrazole-3-carboxamide], the IC50 with HCT116 cells (Homo sapiens, HCT-116, 72 h) is > 10000 nM; on Cdk14/CycY it was 308 nM.

For `C=CC(=O)Nc1cccc(CN2CC[C@H](NC(=O)c3n[nH]cc3NC(=O)c3c(Cl)cccc3Cl)C2)c1` [FMF-05-069-1, (S)—N-(1-(3-acrylamidobenzyl)pyrrolidin-3-yl)-4-(2,6-dichlorobenzamido)-1H-pyrazole-3-carboxamide], the half-maximal inhibitory concentration (IC50) in the assay with HCT116 cells (Homo sapiens, HCT-116, 72 h) amounted to 27 nM; on Cdk14/CycY, 150 nM.

Turning to `C=CC(=O)Nc1ccc(CN2CC[C@H](NC(=O)c3n[nH]cc3NC(=O)c3c(Cl)cccc3Cl)C2)cc1` [FMF-05-070-1, (S)—N-(1-(4-acrylamidobenzyl)pyrrolidin-3-yl)-4-(2,6-dichlorobenzamido)-1H-pyrazole-3-carboxamide], the IC50 in the assay on HCT116 cells (Homo sapiens, HCT-116, 72 h) was 31 nM; on Cdk14/CycY, 572 nM.

On to `C=CC(=O)Nc1cccc(CN2CC[C@@H](NC(=O)c3n[nH]cc3NC(=O)c3c(Cl)cccc3Cl)C2)c1` [FMF-05-071-1, (R)—N-(1-(3-acrylamidobenzyl)pyrrolidin-3-yl)-4-(2,6-dichlorobenzamido)-1H-pyrazole-3-carboxamide], for which the IC50 was < 1 nM in the assay with HCT116 cells (Homo sapiens, HCT-116, 72 h) and 282 nM on Cdk14/CycY.

With `C=CC(=O)Nc1ccc(CN2CC[C@@H](NC(=O)c3n[nH]cc3NC(=O)c3c(Cl)cccc3Cl)C2)cc1` [FMF-05-072-1, (R)—N-(1-(4-acrylamidobenzyl)pyrrolidin-3-yl)-4-(2,6-dichlorobenzamido)-1H-pyrazole-3-carboxamide], the IC50 with HCT116 cells (Homo sapiens, HCT-116, 72 h) was < 1 nM; on Cdk14/CycY it was 257 nM.

In the case of `C=CC(=O)Nc1ccc(N2CCC(NC(=O)c3n[nH]cc3NC(=O)c3c(Cl)cccc3Cl)CC2)cc1` [FMF-05-073-1, N-(1-(4-acrylamidophenyl)piperidin-4-yl)-4-(2,6-dichlorobenzamido)-1H-pyrazole-3-carboxamide], the IC50 in the assay on HCT116 cells (Homo sapiens, HCT-116, 72 h) amounted to 30 nM; on Cdk14/CycY it was 154 nM.

For the compound `C=CC(=O)Nc1ccc(N2CC[C@H](NC(=O)c3n[nH]cc3NC(=O)c3c(Cl)cccc3Cl)C2)cc1` [FMF-05-074-1, (S)—N-(1-(4-acrylamidophenyl)pyrrolidin-3-yl)-4-(2,6-dichlorobenzamido)-1H-pyrazole-3-carboxamide], the IC50 stood at 2900 nM with HCT116 cells (Homo sapiens, HCT-116, 72 h) and 1200 nM at Cdk14/CycY.

As to `CN(C)C/C=C/C(=O)Nc1ccc(N2CC[C@H](NC(=O)c3n[nH]cc3NC(=O)c3c(Cl)cccc3Cl)C2)cc1` [FMF-05-074-2, (S,E)-4-(2,6-dichlorobenzamido)-N-(1-(4-(4-(dimethylamino)but-2-enamido)phenyl)pyrrolidin-3-yl)-1H-pyrazole-3-carboxamide], the IC50 was > 10000 nM in the assay on HCT116 cells (Homo sapiens, HCT-116, 72 h) and 116 nM at Cdk14/CycY.

As to `C=CC(=O)Nc1ccc(N2CC[C@@H](NC(=O)c3n[nH]cc3NC(=O)c3c(Cl)cccc3Cl)C2)cc1` [FMF-05-075-1, (R)—N-(1-(4-acrylamidophenyl)pyrrolidin-3-yl)-4-(2,6-dichlorobenzamido)-1H-pyrazole-3-carboxamide], the IC50 in the assay on HCT116 cells (Homo sapiens, HCT-116, 72 h) amounted to 64 nM; at Cdk14/CycY, 267 nM.

`CN(C)C/C=C/C(=O)Nc1ccc(N2CC[C@@H](NC(=O)c3n[nH]cc3NC(=O)c3c(Cl)cccc3Cl)C2)cc1` [FMF-05-075-2, (R,E)-4-(2,6-dichlorobenzamido)-N-(1-(4-(4-(dimethylamino)but-2-enamido)phenyl)pyrrolidin-3-yl)-1H-pyrazole-3-carboxamide]: the IC50 was 714 nM with HCT116 cells (Homo sapiens, HCT-116, 72 h) and 738 nM on Cdk14/CycY.

Consider `CN(C)C/C=C/C(=O)Nc1ccc(S(=O)(=O)N2CC[C@H](NC(=O)c3n[nH]cc3NC(=O)c3c(Cl)cccc3Cl)C2)cc1` [FMF-05-084-2, (S,E)-4-(2,6-dichlorobenzamido)-N-(1-((4-(4-(dimethylamino)but-2-enamido)phenyl)sulfonyl)pyrrolidin-3-yl)-1H-pyrazole-3-carboxamide], for which the IC50 in the assay with HCT116 cells (Homo sapiens, HCT-116, 72 h) was > 10000 nM; at Cdk14/CycY, 41 nM.

On to `CN(C)C/C=C/C(=O)Nc1cccc(N2CC[C@H](NC(=O)c3n[nH]cc3NC(=O)c3c(Cl)cccc3Cl)C2)c1` [FMF-05-086-2, (S,E)-4-(2,6-dichlorobenzamido)-N-(1-(3-(4-(dimethylamino)but-2-enamido)phenyl)pyrrolidin-3-yl)-1H-pyrazole-3-carboxamide], for which the IC50 in the assay on HCT116 cells (Homo sapiens, HCT-116, 72 h) was > 10000 nM; on Cdk14/CycY, 218 nM.

Turning to `C=CC(=O)Nc1cccc(N2CC[C@@H](NC(=O)c3n[nH]cc3NC(=O)c3c(Cl)cccc3Cl)C2)c1` [FMF-05-087-1, (R)—N-(1-(3-acrylamidophenyl)pyrrolidin-3-yl)-4-(2,6-dichlorobenzamido)-1H-pyrazole-3-carboxamide], the IC50 in the assay with HCT116 cells came to 22 nM; at Cdk14/CycY, 1100 nM.

Regarding `CN(C)C/C=C/C(=O)Nc1cccc(N2CC[C@@H](NC(=O)c3n[nH]cc3NC(=O)c3c(Cl)cccc3Cl)C2)c1` [FMF-05-087-2, (R,E)-4-(2,6-dichlorobenzamido)-N-(1-(3-(4-(dimethylamino)but-2-enamido)phenyl)pyrrolidin-3-yl)-1H-pyrazole-3-carboxamide], the IC50 amounted to 123 nM with HCT116 cells (Homo sapiens, HCT-116, 72 h) and 1300 nM at Cdk14/CycY.
